Read-outs that look alike come from different tables or passages of the source.
Legend:
[1] = tested on: c-jun and c-fos (AP-1) in HUVECs; assay: Immunoblot of AP-1 components; type: cell-based, human; settings: 48 h
Description: Then, the proteins of these cells were extracted using RIPA buffer and separated by 10% (w/v) sodium dodecyl sulphate-polyacrylamide gel electrophoresis (SDS-PAGE). The separated proteins were transferred onto a polyvinylidene fluoride (PVDF) membrane (Millipore, MA, USA) and blocked using 5% (w/v) non-fat powder milk at room temperature. Next, the membranes were incubated in the relative primary antibody and horseradish peroxidase (HRP)-conjugated secondary antibodies. Then, the Image Quant LAS 4000 system (GE Healthcare, Waukesha, WI, USA) was used for the direct visualization of the membranes. The protein bands were densitometrically quantified using Quantity-One protein analysis software (Bio-Rad Laboratories, Hercules, CA, USA). The relative expression of the proteins was normalized to the expression of glyceraldehyde-3-phosphate dehydrogenase (GAPDH).
[…]. […] […].

HUVECs [2] = assay: Tube formation assay; settings: 8.5 μM, 48 h pretreatment, then 5 h on Matrigel
Description: The circumference of the formed tubes was measured under an inverted light microscope.

HUVECs [3] = assay: Cell viability by CCK-8 assay; type: cell-based, human; settings: for Cell viability compared with DMSO or (−)-JQ1: 8.5 μM, 96 h; for IC50: Homo sapiens, HUVEC, read-out: 50% inhibition concentration of cell viability
Description: Cell viability after BET family member inhibitor treatment was evaluated by CCK-8 assay. HUVECs were seeded in 96-well plates at a density of 2,000 cells/well. Twenty-four hours later, the BET family member inhibitors, (−)-JQ1 (negative control drug) and DMSO (solvent group) were added at the indicated concentrations. […] The absorbance was evaluated at 450 nm to determine cell viability.
Furthermore, (−)-JQ1 was employed as a negative control, and DMSO was employed as a solvent control. […].

[4] = tested on: chick embryo CAM vasculature; assay: Chick embryo chorioallantoic membrane (CAM) anti-angiogenesis assay; type: in vivo; settings: 48 h; for Inhibitory effect on microvessel density (MVD) / Inhibitory effect on MVD compared with (+)-JQ1 / Positive Ratio: 50 μg/ml; for Inhibitory effect on microvessel density (MVD) / Inhibition of MVD compared to DMSO / Inhibitory effect on MVD compared with (+)-JQ1 / Inhibitory efficacy on MVD compared with (+)-JQ1: CAM; for Inhibitory effect on microvessel density (MVD) / Inhibitory effect on MVD compared with (+)-JQ1: Figure 1C; for Inhibition of MVD compared to DMSO: 25, 50 and 100 μM, Figure 2F; for Anti-angiogenic activity, egg number 1: egg 1; for Anti-angiogenic activity, egg number 3: egg 3; for Anti-angiogenic activity, egg number 5: egg 5; for Inhibitory efficacy on MVD compared with (+)-JQ1: at each of 25, 50 and 100 μM; for Positive Ratio: embryos with ++ and +++ compared with total number of embryos; for Anti-angiogenic activity, egg number 2: egg 2; for Anti-angiogenic activity, egg number 4: egg 4
Description: Fertilized white leghorn chicken eggs were obtained from the Avian Farm of South China Agriculture University (Guangzhou, China) and the shells were cleaned with 1% geramine. […] A small window (10 × 10 mm^2) was cut above the air chamber of egg while the chick embryo was growing through the ninth day. BET family member inhibitors or DMSO (dissolved in 30 µl of phosphate-buffered saline [PBS, pH 7.4]) were placed directly onto the live chick embryo CAM through the window at the indicated concentrations and incubated for 48 h. Then, the eggshells were cut carefully along the axis of the median line, and the content was discarded. The CAM vasculature around the eggshell windows was observed and photographed under a stereomicroscope (Olympus SZX16). The microvessel density (MVD) was calculated as the percentage of blood vessel area in the total drug-treated area using the Image-Pro Plus 6.0 software (IPP 6.0, Media Cybernetics, Inc., Rockville MD, USA).
The effects of all these selected compounds on angiogenesis were first determined through use of the chick embryo CAM model. […] Each of the compounds (50 μg/ml) was added to the CAM of 9-day-old chick embryos for 48 h. The CAMs of chick embryos were photographed, and the inhibition ratio indicating angiogenesis was calculated and analyzed. […] An inhibitory effect observable but not obvious on the generation of third-grade vessels was indicated by “+”; an obvious medium-level inhibitory effect on secondary vessels was indicated by “++”; and an obvious potent inhibitory effect on primary blood vessels was indicated by “+++”.

chick embryo YSM vessels = assay: Chick embryo yolk sac membrane (YSM) anti-angiogenesis assay; type: in vivo; settings: 100 μM, 24 h; for Blood vessel density and number of blood vessels compared with DMSO: YSM of 3-day-old chick embryos
Description: On the third day of incubation, the well-developed live chicken embryos were carefully transferred into sterilized dishes, and the chick embryo vessels were arranged to face upward. Color marked silastic rings were symmetrically placed onto the top of the vessel regions of the yolk sac membrane and incubated for 3 h in the incubator. Then, 100 μM BET family member inhibitors or DMSO (dissolved in 30 µl of PBS, pH 7.4) was added into the center of the rings and cultured in the incubator for 24 h. Images of the vessels in the silastic rings were captured at 0 and 24 h, respectively. The images were quantitatively analyzed by Image-Pro Plus 6.0, and then the number of blood vessels 24 h after drug treatment and the MVD at 0 and 24 h were quantified using IPP 6.0. The growth rate in the DMSO-treated silica gel circle was considered to be one.

BRD2 BD1 = molecular target: T1, BRD2 BD1 (Homo sapiens, UniProt P25440); assay: TR-FRET assay, BRD2 BD1; type: binding
T1 construct: purchased Cayman Chemical
T1 sequence (P25440 74-180 limits assumed): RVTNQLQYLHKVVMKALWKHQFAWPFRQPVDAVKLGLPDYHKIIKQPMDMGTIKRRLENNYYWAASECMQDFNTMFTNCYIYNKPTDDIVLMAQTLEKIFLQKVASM
Description: (§1) The specificity of the designed and synthesized compounds for BRD4 was also evaluated through comparison with those for BRD2.
(§2) As acetylated histone peptides are known substrates for bromodomain-containing proteins, we initially screened the complexes for their ability to modulate the protein–protein interaction between acetylated lysine and BET family members. […] Then, the IC50 of the compounds that prevent BRD4 (BD1 or BD2)/BRD2 (BD1 or BD2) and acetylated histone interactions was calculated by TR-FRET assay in vitro.

BRD2 BD2 = molecular target: T2, BRD2 BD2 (Homo sapiens, UniProt P25440); assay: TR-FRET assay, BRD2 BD2; type: binding
T2 construct: purchased Cayman Chemical
T2 sequence (P25440 344-453 limits assumed): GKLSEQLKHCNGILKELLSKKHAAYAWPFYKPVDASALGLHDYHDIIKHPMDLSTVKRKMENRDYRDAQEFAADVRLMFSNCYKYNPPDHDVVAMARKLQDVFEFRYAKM
Description: as §1, §2

BRD4 BD2 = molecular target: T3, BRD4 BD2 (Homo sapiens, UniProt O60885); assay: TR-FRET assay, BRD4 BD2; type: binding
T3 construct: purchased Cayman Chemical
Description: as §1, §2

H3K122Ac = tested on: H3K122Ac; set-up: method as in Liu et al., 2020; settings: ref Liu et al., 2020; cited from earlier work
BRD4 BD1 = molecular target: T4, BRD4 BD1 (Homo sapiens, UniProt O60885); assay: TR-FRET assay, BRD4 BD1; type: binding
T4 construct: purchased Cayman Chemical
Description: as §1, §2

[5] = 50 μg/ml on CAM of 9-day-old chick embryos

SMILES: Cc1sc2c(c1C)C(c1ccc(Cl)cc1)=N[C@@H](CC(=O)OC(C)(C)C)c1nnc(C)n1-2 [(+)-JQ1 (1), reference compound]
- Expression of c-jun compared with DMSO [1]: significantly inhibited the expression of c-jun
- Phosphorylation of c-jun and c-fos compared with DMSO [1]: significantly inhibited
- Tube formation (tube circumference) compared with DMSO (HUVECs [2]): reduction in tube circumference
- Cell viability compared with DMSO or (−)-JQ1 (HUVECs [3]; HUVECs): significantly suppressed cell viability
- IC50 (HUVECs [3]): 5000 nM
- Inhibitory effect on microvessel density (MVD) [4]: most impressive inhibitory effect on MVD
- Inhibition of MVD compared to DMSO [4]: significantly inhibited MVD in a concentration-dependent manner
- Blood vessel density and number of blood vessels compared with DMSO (chick embryo YSM vessels): significantly reduced

SMILES: COc1cc(OC)c2c(=O)cc(-c3ccc(OCC(O)CN4CCCCC4)cc3)oc2c1 (stereo not drawn) [HJC5100(16)]
- Anti-angiogenic activity, egg number 1 [4, 5]: +
- Anti-angiogenic activity, egg number 3 [4, 5]: +

SMILES: Cc1cc(/N=N/c2ccc(S(=O)(=O)Nc3ccccn3)cc2)c(N)cc1O [MS436 (3), reference compound]
- Anti-angiogenic activity, egg number 5 [4, 5]: +
- Inhibitory effect on MVD compared with (+)-JQ1 [4]: better than that of the (+)-JQ1 positive control
- Inhibitory effect on microvessel density (MVD) [4]: most impressive inhibitory effect on MVD
- Inhibition of MVD compared to DMSO [4]: significantly inhibited MVD in a concentration-dependent manner
- Inhibitory efficacy on MVD compared with (+)-JQ1 [4]: stronger inhibitory efficacy than (+)-JQ1
- IC50 (BRD2 BD1): 797 nM
- IC50 (BRD2 BD2): 846 nM

SMILES: CC(C)(C)c1cc(-c2nnc(-c3cc(F)c(F)c(F)c3)o2)no1 [ZL0164(4)]
- Anti-angiogenic activity, egg number 5 [4, 5]: +
- Positive Ratio [4]: 2/5

SMILES: Cc1cc(N=Nc2ccc(S(=O)(=O)N3CCCC3)cc2)c(N)cc1O [ZL0452(5)]
- Anti-angiogenic activity, egg number 2 [4, 5]: +
- Anti-angiogenic activity, egg number 4 [4, 5]: +
- Positive Ratio [4]: 1/4

SMILES: Cc1cc(N=Nc2ccc(S(=O)(=O)NC3CCCC3)cc2)cc(C)c1O [ZL0453(6)]
- Anti-angiogenic activity, egg number 1 [4, 5]: +
- Anti-angiogenic activity, egg number 4 [4, 5]: +
- Anti-angiogenic activity, egg number 5 [4, 5]: +
- Positive Ratio [4]: 1/5

SMILES: Cc1cc(/N=N/c2ccc(S(=O)(=O)NC3CCCC3)cc2)c(N)cc1O [ZL0454 (2)]
- Anti-angiogenic activity, egg number 5 [4, 5]: +
- Inhibitory effect on microvessel density (MVD) [4]: most impressive inhibitory effect on MVD
- Inhibition of MVD compared to DMSO [4]: significantly inhibited MVD in a concentration-dependent manner
- Inhibitory efficacy on MVD compared with (+)-JQ1 [4]: stronger inhibitory efficacy than (+)-JQ1

SMILES: COc1cc(OC)c2c(=O)cc(-c3cc(C)c(OC[C@H](O)CN4CCCCC4)c(C)c3)oc2c1 [ZL0513 (7)]
- Expression of c-jun compared with DMSO [1]: significantly inhibited the expression of c-jun
- Phosphorylation of c-jun and c-fos compared with DMSO [1]: significantly inhibited
- Tube formation (tube circumference) compared with DMSO (HUVECs [2]): reduction in tube circumference
- Cell viability compared with DMSO or (−)-JQ1 (HUVECs [3]; HUVECs): significantly suppressed cell viability
- IC50 (HUVECs [3]; HUVECs, CCK-8, concentration range 0.3 to 15 μM): 8500 nM
- IC50 (BRD4 BD2): 684 nM
- Anti-angiogenic activity, egg number 4 [4, 5]: +
- Inhibitory effect on MVD compared with (+)-JQ1 [4]: better than that of the (+)-JQ1 positive control
- Inhibitory effect on microvessel density (MVD) [4]: most impressive inhibitory effect on MVD
- Positive Ratio [4]: 4/5
- Inhibition of MVD compared to DMSO [4]: significantly inhibited MVD in a concentration-dependent manner
- Inhibitory efficacy on MVD compared with (+)-JQ1 [4]: stronger inhibitory efficacy than (+)-JQ1
- Effect on poly(I:C)-induced H3K122Ac (H3K122Ac): block poly(I:C)-induced H3K122Ac
- IC50 (BRD2 BD1): 791 nM
- IC50 (BRD2 BD2): 845 nM
- Inhibition efficacy on angiogenesis in YSM compared with (+)-JQ1 (chick embryo YSM vessels): significantly higher than that of (+)-JQ1 (1) treatment
- Blood vessel density and number of blood vessels compared with DMSO (chick embryo YSM vessels): significantly reduced
- Selectivity window to BRD4 over BRD2 (BRD4 BD1; BRD4 versus BRD2): 10 fold
- IC50 (BRD4 BD1; TR-FRET): 67 nM

SMILES: Cc1cc(N=Nc2ccc3c(c2)CCC(=O)N3)c(N)cc1O [ZL0518(8)]
- Anti-angiogenic activity, egg number 6 ([4]; 50 μg/ml on CAM of 9-day-old chick embryos, egg 6): +
- Positive Ratio [4]: 1/3

SMILES: COc1cc(OC)c2c(=O)cc(-c3ccc(OCC4CO4)cc3)oc2c1 (stereo not drawn) [ZL0519 (9)]
- Positive Ratio [4]: 3/4

SMILES: COC(=O)C1CCCN1S(=O)(=O)c1ccc(NC(=O)c2ccc(C(F)(F)F)cc2)cc1 (stereo not drawn) [ZL0520(10)]
- Anti-angiogenic activity, egg number 1 [4, 5]: +
- Anti-angiogenic activity, egg number 4 [4, 5]: +
- Positive Ratio [4]: 1/5

SMILES: Cc1ccc(S(=O)(=O)OC[C@@H]2CCCN2S(=O)(=O)c2ccc(NC(=O)Nc3ccc(C(F)(F)F)cc3)cc2)cc1 [ZL0586(12)]
- Anti-angiogenic activity, egg number 2 [4, 5]: +
- Anti-angiogenic activity, egg number 3 [4, 5]: +
- Anti-angiogenic activity, egg number 5 [4, 5]: +
- Positive Ratio [4]: 2/5

SMILES: O=C(Nc1ccc(C(F)(F)F)cc1)N1CCN(c2ccc(O)cc2)CC1 [ZL0589(14)]
- Anti-angiogenic activity, egg number 5 [4, 5]: +
- Positive Ratio [4]: 2/5

SMILES: N#CC(=NNc1ccc2c(c1)CCC(=O)N2)C(=O)c1ccc(OC(F)(F)F)cc1 [ZL0593(15)]
- Anti-angiogenic activity, egg number 3 [4, 5]: +
- Positive Ratio [4]: 3/5
